Results reported in patent publication US6620793B2, “Therapeutic use of ganglioside GM1 in the treatment of spinal cord injury” (Fidia Farmaceutici S.p.A., priority 1991, dated 2003).
Values joined by “and” are separate entries in the source; they are usually repeats but may differ in a detail not shown here. Identical values can stand only once.

Experiments:
[1] = system: patients with spinal cord injury; experiment: Randomized placebo-controlled double-blind spinal cord injury GM1 trial: Frankel grade; assay type: in vivo, humans
Description: The first clinical scale used, that is the Frankel classification system, is extremely important because it provides a very relevant clinical index of neurological improvement of the patients.
More precisely, the Frankel classification system separates neurologic disability into five ordinal grades, according to the type and completeness of neurologic function remaining below the level of the spinal-cord injury, as follows: grad A, complete neurclogic injury; grade B, only sensation preserved; grade C, nonfunctional motor ability preserved; grade D, functional motor ability preserved; and grade E, normal motor function. The letters designating each grade were used by Frankel in his original description of this scale.

[2] = system: patients with spinal cord injury; experiment: Randomized placebo-controlled double-blind spinal cord injury GM1 trial: ASIA motor score
Description: This study was designed as a pilot study to test whether the neurologic recovery in humans after a spinal-cord injury could be altered by adding monosialbtetrahexosylganglioside (GM1) ganglioside beyond the routine medical and surgical care with which these trauma patients are initially treated.
A prospective, randomized, placebo-controlled, double-blinded spinal cord injury GM1 ganglioside drug trial was completed. Of the 37 patients, 34 patients (23 cervical and 11 thoracic injuries) who were randomly assigned to a treatment group and who followed the test drug protocol and completed the one year follow-up period, 16 patients were included in the GM1 group and 18 were in the placebo group.
The first dose of study drug was administered within 72 hours of the injury and then 17 to 29 additional 5 ml daily injections of 100 mg GM1 or placebo were given. The treatment (100 mg of GM1 sodium salt or placebo) was administered duly by the intravenous route for a total of 18-32 doses, with the first dose taken within 72 hours of the injury.
The complete composition of the GM1 ganglioside used in the study (Sygen, Fidia, Abano Terme, Italy) is 100 mg of GM1 sodium salt, 12.7 mM; 1.25 mg of sodium dihydrogen phosphate dihydrate, 1.6 mM; 15.0 mg of disodium hydrogen phosphate dodecahydrate, 8.4 mM; 40.0 mg of sodium chloride, 137.9 nM; and a quantity of water sufficient to yield an isotonic solution with a total volume of 5 ml for injection. The placebo vials were identical in appearance and composition, except that the GM1 was absent. Most of the test drug was administered by injection through an intravenous heparin lock. Some of the first few injections were given by an intravenous catheter, and occasionally, when the heparin lock was nonfunctional, a single direct-puncture intravenous injection was used.
The severity of spinal-cord injury and its subsequent recovery were quantified by serial measurement with both the Frankel scale and the American Spinal Injury Association (ASIA) motor score. Each measurement was made at the time of the first contact in the emergency room, at entry into the study, then twice per week for the first 4 weeks and after 2, 3, 6 and 12 months.
The second clinical scale used, that is the ASIA motor score, provides a quantifiable index of nerve-muscle functionality. More exactly, this scale has a range of 0 (complete quadriplegia) to 100 (normal motor function). Five key muscles in each extremity (the biceps, wrist extensors, triceps, flexor profundus, and hand intrinsics in the upper extremity, and the iliopsoas, quadriceps, tibialis anterior, extensor hallucis longus, and gastrocnemius in the lower extremity) are assessed on a scale for strength from 0 to 5 points in which 0 (absent) denotes total paralysis, 1 (trace) palpable or visible penetration, 2(poor) active movement through a range of motion in which gravity is not involved, 3 (fair) active movement through a range of motion against gravity, 4 (good) active movement through a range of motion against resistance, and 5 normal. The ASIA motor score is the sum of the scores for muscle strength in these 20 motor groups.
Furthermore, to better analyze the GM1 effect on muscular functionality, the 20 individual muscle groups in each patient were subdivided into three categories at entry: those initially paralyzed (a motor score of 0), those initially paretic (a motor score of 1 through 4), and those functioning normally (a motor score of 5).

[3] = Solubility of purified GM1 sodium salt; assay type: physicochemical
Description: The compound obtained after this purification has the following chemical characteristics and specifications:
Soluble in water, methanol-water and methanol-chloroform.

CCCCCCCCCCCCCC=CC(O)C(COC1OC(CO)C(OC2OC(CO)C(OC3OC(CO)C(O)C(OC4OC(CO)C(O)C(O)C4O)C3NC(C)=O)C(OC3(C(=O)[O-])CC(O)C(NC(C)=O)C(C(O)C(O)CO)O3)C2O)C(O)C1O)NC(=O)CCCCCCCCCCCCCCCCC.[Na+] (stereo not drawn) [GM1, Monosialotetrahexosylganglioside, sodium salt]
Patients improved by two or more Frankel grades who were in the GM1 group ([1]; after one year, 100 mg GM1 i.v. daily, 18-32 doses, 8 of 34 patients improved overall): seven of eight
Improvement with respect to Frankel grade versus placebo ([1]; entry to one year, P=0.034 Cochran-Mantel-Haenszel chi-square test): improved more than the placebo-treated patients
Patients improved by two or more Frankel grades among those who had room to improve (number) ([1]; one year, placebo 1 of 14, P=0.033 Fisher's exact test, two-tailed): 7 of 14
Patients improved by two or more Frankel grades among those who had room to improve (percent) ([1]; one year, placebo 7.1 percent, P=0.033 Fisher's exact test): 50%
Difference in improvement in ASIA motor score between groups, unadjusted ([2]; GM1 versus placebo, one year, mean ± SD, n=34, sodium salt): 15.3 and 15.3 ± 25.6
Improvement in mean ASIA motor score ([2]; all patients, entry to one-year follow-up, mean ± SD, n=16): 36.9 ± 28.2
Mean ASIA motor score at follow-up ([2]; all patients, one-year follow-up, mean ± SD, n=16): 62.8 ± 26.8
Mean ASIA motor score at entry ([2]; all patients, study entry (baseline), mean ± SD, n=16, sodium salt): 25.9 and 25.9 ± 21.8
Patients with a greater degree of ASIA motor recovery than any patient assigned to placebo ([2]; entry to one-year follow-up): three
Patients with motor recoveries of more than 20 points in ASIA motor score (number) ([2]; entry to one-year follow-up, placebo 7 of 18): 11 of 16
Patients with motor recoveries of more than 20 points in ASIA motor score (percent) ([2]; entry to one-year follow-up, placebo 38.9 percent): 68.8%
Patients with no recovery in ASIA motor score ([2]; entry to one-year follow-up, placebo six patients): one
Mean motor recovery in ASIA motor score ([2]; entry to score after one year, 95 percent CI 21.9 to 51.9): 36.9 points
Muscle groups paralyzed at entry that regained useful-to-normal motor function (percent) ([2]; motor score 0 at entry to 3 to 5 after one year, placebo 25.3 percent): 51.7%
Muscle groups paralyzed at entry that regained useful-to-normal motor function (number) ([2]; motor score 0 at entry to 3 to 5 after one year, placebo 49 of 194): 107 of 207
Muscle groups paralyzed at entry that remained paralyzed (percent) ([2]; motor score 0 at entry, after one year, placebo 65.5 percent): 30.9%
Muscle groups paralyzed at entry that remained paralyzed (number) ([2]; motor score 0 at entry, after one year, placebo 127 of 194): 64 of 207
Patients with at least one muscle group paralyzed at entry that improved to a motor score of 3 or more (number) ([2]; one-year follow-up, post hoc, placebo 8 of 18, P=0.039 Fisher's exact test): 13 of 16
Patients with at least one muscle group paralyzed at entry that improved to a motor score of 3 or more (percent) ([2]; one-year follow-up, post hoc, placebo 44.4 percent, P=0.039 Fisher's exact test): 81.3%
Solubility ([3]; in methanol, acetone, chloroform, ether and hexane): Virtually insoluble
Solubility ([3]; in water, methanol-water and methanol-chloroform): Soluble
